Measurements published in PubChem BioAssay (NCI).
Values joined by “and” are separate entries in the source; they are usually repeats but may differ in a detail not shown here. Equal entries are not always repeated.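 Each compound was tested at five concentrations against cells in 96-well plates for 48 hours. GI50 = concentration required for 50% inhibition of growth. TGI marks complete inhibition of growth.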

How the values were obtained:
Assay in all cases: growth of human tumour cells (NCI), 48 h
SK-MEL-5 melanoma = test system: SK-MEL-5 melanoma
NCI-H226 lung = test system: NCI-H226 lung
OVCAR-8 ovarian = test system: OVCAR-8 ovarian
NCI-H23 lung = test system: NCI-H23 lung
OVCAR-3 ovarian = test system: OVCAR-3 ovarian
UACC-62 melanoma = test system: UACC-62 melanoma
EKVX NSCLC = test system: EKVX NSCLC
MOLT-4 leukemia = test system: MOLT-4 leukemia
SW-620 colon = test system: SW-620 colon
COLO 205 colon = test system: COLO 205 colon
CCRF-CEM leukemia = test system: CCRF-CEM leukemia
RPMI-8226 leukemia = test system: RPMI-8226 leukemia
LOX IMVI melanoma = test system: LOX IMVI melanoma
NCI-H460 lung = test system: NCI-H460 lung

Compound	TGI (SK-MEL-5 melanoma)	TGI (NCI-H226 lung)	TGI (OVCAR-8 ovarian)	TGI (NCI-H23 lung)	TGI (OVCAR-3 ovarian)	TGI (UACC-62 melanoma)	TGI (EKVX NSCLC)	TGI (MOLT-4 leukemia)	TGI (SW-620 colon)	TGI (COLO 205 colon)	TGI (CCRF-CEM leukemia)	TGI (RPMI-8226 leukemia)	TGI (LOX IMVI melanoma)	TGI (NCI-H460 lung)	GI50 (NCI-H226 lung)	GI50 (NCI-H23 lung)	GI50 (UACC-62 melanoma)	GI50 (RPMI-8226 leukemia)	GI50 (LOX IMVI melanoma)	GI50 (NCI-H460 lung)
OCC1O[C@H](O[C@@H]2CCCN3CC(O)C(O)[C@@H]23)C(O)C(O)C1O (some centres undefined)	> 100 µM	> 100 µM	> 100 µM	> 100 µM	> 100 µM	> 100 µM	> 100 µM	> 100 µM	> 100 µM	> 100 µM	> 100 µM									
COc1cc(OC2OC(CO)C(O)C(O)C2O)c2c(O)c3c(=O)cc(C)oc3cc2c1 (centres undefined)	> 100 µM	> 100 µM	> 100 µM	> 100 µM	> 100 µM	> 100 µM	> 100 µM	> 100 µM	> 100 µM	> 100 µM	> 100 µM	> 100 µM	> 100 µM	> 100 µM						
S=c1sc2c(s1)SC(c1ccccc1)CS2 (centres undefined)	> 100 µM	> 100 µM	> 100 µM	> 100 µM	> 100 µM	> 100 µM	> 100 µM	> 100 µM	> 100 µM	> 100 µM	> 100 µM	> 100 µM	> 100 µM	> 100 µM						
CCCCCC(=O)N[C@@H](c1ccco1)[C@@H](O)C(=O)O[C@H]1C[C@@]2(O)[C@@H](OC(=O)c3ccccc3)[C@@H]3[C@]4(OC(C)=O)CO[C@@H]4C[C@H](O)[C@@]3(C)C(=O)[C@H](OC(C)=O)C(=C1C)C2(C)C	4.52 µM		> 25 µM	> 25 µM	0.000716 µM		> 25 µM			0.00015 µM		8.08 µM		> 25 µM	1.33 nM	0.239 nM	4.01 nM			
CCNC(=O)C(C)C1CCC2(C)C=CC(=O)C(C)=C2C1O (centres undefined)	> 100 µM	> 100 µM	> 100 µM	> 100 µM	> 100 µM	> 100 µM	> 100 µM	> 100 µM	> 100 µM	> 100 µM	> 100 µM	> 100 µM	> 100 µM	> 100 µM						
Nc1nc(Nc2ccc(Cl)c(Cl)c2)nc2nc[nH]c12	27.7 µM	50.2 µM	28 µM	34.9 µM	27 µM	29 µM	18.8 µM	39.2 µM	41.6 µM	44.3 µM	41 µM	62.8 µM	36.9 µM	34 µM						
C[N+](C)(CCCCCC[N+](C)(C)CCCN1C(=O)c2cccc3cccc(c23)C1=O)CCCN1C(=O)c2cccc3cccc(c23)C1=O	> 100 µM		> 100 µM	> 100 µM	> 100 µM	> 100 µM	> 100 µM	> 100 µM	> 100 µM	> 100 µM	> 100 µM	> 100 µM	> 100 µM	> 100 µM						
N#C/C(=C\c1ccncc1)c1csc2ccccc12	33.2 µM	> 77.1 µM	> 85.1 µM	> 79.8 µM	42.9 µM	> 76.4 µM	> 100 µM	43.1 µM	67.7 µM	35.9 µM	55.8 µM	52.3 µM	47.9 µM	> 69 µM						
O=C1OC(c2ccccc2)=NC1c1ccccc1 (centres undefined)	> 100 µM	> 100 µM	> 100 µM	> 100 µM	> 100 µM	> 100 µM	> 100 µM	> 100 µM	> 100 µM	> 100 µM	> 100 µM	> 100 µM	> 100 µM	> 100 µM						
Cc1ccc(/C=C2\Sc3scc(-c4ccccc4)[n+]3C2=O)cc1	> 58.2 µM	> 100 µM	> 56.6 µM	46.4 µM	> 100 µM	45.6 µM	> 58.5 µM	> 72.6 µM	> 52.4 µM	52.4 µM	32.9 µM	35.4 µM	> 54.5 µM	42.4 µM						
O=C(NN1C(=O)C(Cl)C1c1ccccc1O)c1ccccc1O (centres undefined)	> 100 µM		> 100 µM	> 100 µM	> 100 µM	> 100 µM	> 100 µM	> 100 µM	> 100 µM	> 100 µM	70.6 µM	> 100 µM		> 100 µM						
O=[N+]([O-])C(=C/c1ccccc1)/C(=C\c1ccccc1)[N+](=O)[O-]	30.2 µM	47.3 µM	47.1 µM	31.1 µM	45.3 µM	30.7 µM	34 µM	19.5 µM	28.6 µM	40 µM	7.69 µM	48.4 µM	29.1 µM	33 µM						
O=NN1C(c2ccccc2)CNC(=O)CC1c1ccccc1 (centres undefined)	> 93.1 µM	> 100 µM	> 100 µM	97.9 µM	> 92.7 µM	> 100 µM	> 100 µM	> 93 µM	> 100 µM	69.8 µM	> 100 µM	> 100 µM	> 100 µM	> 100 µM						
FC(F)(F)c1ccc2c(c1)N(CCCNCCN1CCOCC1)c1ccccc1S2	13.8 µM		32.8 µM	24.7 µM	24.8 µM	27.8 µM	29.4 µM	20.1 µM	21.9 µM	6.84 µM	30.4 µM	28.9 µM	21.2 µM	38.5 µM						
O=C(Nc1ccc([N+](=O)[O-])cc1)Nn1cnnc1	> 100 µM	2.31 µM	67 µM	48.8 µM	72.8 µM	> 100 µM	> 100 µM	> 100 µM	> 100 µM	> 100 µM	> 100 µM	> 100 µM	> 100 µM	> 100 µM						
COc1ccccc1/C=C(/C)[N+](=O)[O-]	5.1 µM and 3.59 µM	4.22 µM and 3.64 µM	4 µM and 4.24 µM	5.81 µM	3.15 µM and 2.68 µM	3.93 µM and 3.12 µM	20.1 µM and 12.3 µM	0.598 µM and 1.5 µM	43.1 µM	10.3 µM	13 µM and > 100 µM		2.1 µM					282 nM and 608 nM	263 nM	4.07 µM and 1.94 µM
OCC#CCNCl	> 100 µM	> 100 µM	> 100 µM	> 100 µM	> 100 µM	> 100 µM	> 100 µM	> 100 µM	> 100 µM	> 100 µM	> 100 µM	> 100 µM	> 100 µM	> 100 µM						
